From ChEMBL document CHEMBL1129326, “Inhibition of DNA topoisomerase II by azaelliptitoxins functionalized in the variable substituent domain” (J Med Chem, 1996)
Active and inactive are the calls of the source. The rule behind the calls is not given here.

Biological target: DNA topoisomerase II (Homo sapiens) (UniProt P11388+Q02880)
Experiment: Inhibitory activity against human DNA Topoisomerase-2, activity is expressed as relative DNA cleavage compared to Azatoxin by densitometric analysis; inactive
Type: protein assay

Structure (SMILES) | Activity
COc1cc(N[C@@H]2c3c([nH]c4ccccc34)[C@@H](c3cc(OC)c(O)c(OC)c3)N3C(=O)OC[C@H]23)ccc1O | inactive
COc1cc([C@@H]2c3[nH]c4ccccc4c3[C@@H](Nc3cc(OC)c(OC)c(OC)c3)[C@H]3COC(=O)N23)cc(OC)c1O | inactive
COc1cc([C@@H]2c3[nH]c4ccccc4c3[C@@H](OC)[C@H]3COC(=O)N23)cc(OC)c1O | inactive
